{"source": "patent US20120316203A1", "about": "“Compositions and Methods for Inhibition of Cancers” (THE OHIO STATE UNIVERSITY RESEARCH FOUNDATION, priority 2009, published 2012)", "format_in_all_cases": "cell-based, human", "key": {"[1]": {"system": "p53, p21, p27, cdk2, and cyclin A in A2780 cells", "experiment": "Immunoblot of cell cycle regulatory proteins", "conditions": "Western blot", "procedure": "Cells in RPMI 1640 were treated with DMSO (control) or HO-3867 (10 μmol/L) for 24 hours. Equal volumes of DMSO (0.1% v/v) were present in each treatment. Following treatment, the cell lysates were prepared in non-denaturing lysis buffer containing 10 mmol/L Tris-HCl (pH 7.4), 150 mmol/L NaCl, 1% Triton X-100, 1 mmol/L EDTA, 1 mmol/L EGTA, 0.3 mmol/L phenylmethyl-sulfonyl fluoride, 0.2 mmol/L sodium orthovanadate, 0.5% NP40, 1 μg/mL aprotinin, and 1 μg/mL leupetin. The lysates were centrifuged at 10,000×g for 20 minutes at 4° C. and the supernatant was separated. The protein concentration in the lysates was determined using a Pierce detergent-compatible protein assay kit. For Western blotting, 25 to 50 μg of protein lysate per sample were denatured in 2×SDS-PAGE sample buffer and subjected to SDS-PAGE on a 10% tris-glycine gel. The separated proteins were transferred to a polyvinylidene fluoride membrane and were blocked with 5% nonfat milk powder (w/v) in TBST (10 mmol/L Tris, 10 mmol/L NaCl, 0.1% Tween 20) for 1 hour at room temperature or overnight at 4° C. […] The bound antibodies were detected with horseradish peroxidase-labeled sheep anti-mouse IgG or horseradish peroxidase-labeled donkey anti-rabbit IgG using an enhanced chemiluminescence detection system (ECL Advanced kit). Protein expressions were determined using the Image Gauge v. […]"}, "[2]": {"system": "STAT3 and apoptotic markers in HSMC", "experiment": "Western blot of STAT3 signaling and apoptotic markers in HSMC", "conditions": "10 μM, 24 h", "procedure": "Cells were grown in RPMI 1640 medium and treated with DMSO (control) or HO-3867 ([…]). Equal volumes of DMSO (0.1% v/v) were present in both groups. After treatment, cell lysates were prepared in nondenaturing lysis buffer (10 mM Tris-HCl (pH 7.4), 150 mM NaCl, 1% Triton X-100, 1 mM EDTA, 1 mM EGTA, 0.3 mM phenylmethylsulfonyl fluoride, 0.2-mM sodium orthovanadate, 0.5% NP-40, 1 lag/ml aprotinin, and 1 lag/ml leupeptin). Cell lysates were centrifuged at 10,000 RPM for 20 min at 4° C., and the supernatant was separated. The protein concentration in the lysates was determined using a Pierce detergent-compatible protein assay kit. For Western blotting, 25 to 50 lag of protein lysate per sample was denatured in 2× sample buffer and subjected to SDS-PAGE on a 10 or 12% Tris-glycine gel. The separated proteins were transferred to a PVDF membrane and then the membrane was blocked with 5% nonfat milk powder (w/v) in 10 mM Tris, 100 mM NaCl, 0.1% Tween 20 for 1 h at room temperature or overnight at 4° C. The membranes were incubated with the primary antibodies described above. The bound antibodies were detected with horseradish peroxidase (HRP)-labeled sheep anti-mouse IgG or HRP-labeled donkey anti-rabbit IgG (Amersham) using an enhanced chemiluminescence detection system (ECL Advanced Kit). Protein expression was determined using Image Gauge version 3.45."}, "[3]": {"system": "A2780 and SKOV3 cells", "experiment": "Cell-migration (wound-healing) assay", "conditions": "10 μM", "procedure": "Cell-migration assay was performed by wound-healing method. Cells were plated at equal density and grown to 90% confluence. Wounds were created using a sterile pipette tip. Cells were then rinsed with medium and replaced with the fresh medium and incubated with HO-3867 (10 μM). Areas of wound were marked and photographed at various time-points with a phase-contrast microscope. Cell-invasive assay was measured by an in vitro Boyden chamber assay. Briefly, 1×10^5 cells in 0.5 ml of serum-free RPMI 1640 medium were added to the wells of 8-μm-diameter pore membrane Boyden chambers, either coated with (BD Biosciences, Franklin Lake, N.J.) or without (Corning, Corning, N.Y.) Matrigel. Cells were allowed to invade for 24 hours. Cells that had not penetrated the filters were removed by scrubbing with cotton swabs. Chambers were fixed in 100% methanol for 2 min, stained in 0.5% crystal violet for 2 min, rinsed in PBS and examined using a bright-field microscope. Values for invasion were obtained by counting five fields per membrane and represented as the average of three independent experiments performed over multiple days."}}}
{"compound": "CC1(C)C=C(CN2C/C(=C\\c3ccc(F)cc3)C(=O)/C(=C/c3ccc(F)cc3)C2)C(C)(C)N1O", "note": "[HO-3867, 1-[(1-oxyl-2,2,5,5-tetramethyl-2,5-dihydro-1H-pyrrol-3-yl)methyl]-(3E,5E)-3,5-bis(4-fluorobenzylidene)piperidin-4-one]", "values": [{"measurement": "cdk2 and cyclin-A levels", "setting": "[1]", "value": "significantly decreased"}, {"measurement": "levels of p53 and p21", "setting": "[1]", "value": "significantly upregulated"}, {"measurement": "activation of STAT3 or apoptotic markers in HSMC", "setting": "[2]", "value": "did not induce any significant change"}, {"measurement": "cell migration", "setting": "[3]; 24 hours, versus untreated cells", "value": "significant inhibition"}, {"measurement": "VEGF-induced migration", "setting": "[3]; 24-h incubation, versus VEGF group", "value": "significantly inhibited"}]}
